Assays:
Test in all cases: Spore germination test
Type in all cases: cell-based
[1] = system: Alternaria solani; details: AS, 48 hours
Method in brief: (§1)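 Compound in acetone was mixed into water agar at final 40, 10, 2.5 and 1 ppm and poured into quadrant dishes. Quadrants received spore suspension, while Erysiphe polygoni and Uromyces phaseoli spores were brushed on from infected leaves. After 48 h at 24 °C, the percentage of germinated spores was converted to a germination rating.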

[2] = system: Uromyces phaseoli; details: UP, 48 hours
Method in brief: as §1

[3] = system: Erysiphe polygoni; details: EP, 48 hours
Method in brief: as §1

Row | Structure (SMILES) | Spore Germination Rating ([1]; 1.0 ppm) | Spore Germination Rating ([1]; 2.5 ppm) | Spore Germination Rating ([1]; 10 ppm) | Spore Germination Rating ([1]; 40 ppm) | Spore Germination Rating ([2]; 1.0 ppm) | Spore Germination Rating ([2]; 2.5 ppm) | Spore Germination Rating ([2]; 10 ppm) | Spore Germination Rating ([2]; 40 ppm) | Spore Germination Rating ([3]; 1.0 ppm) | Spore Germination Rating ([3]; 2.5 ppm) | Spore Germination Rating ([3]; 10 ppm) | Spore Germination Rating ([3]; 40 ppm)
1 | O=c1c(Cl)nsnc1Oc1ccc([N+](=O)[O-])cc1Cl [Compound 53, 3-chloro-5-(2-chloro-4-nitrophenoxy)-4H--1,2,6-thiadiazin-4-one] | 2 (40-60) | 0 (0-10) | 0 (0-10) | 0 (0-10) | 1 (10-40) | 0 (0-10) | 0 (0-10) | 0 (0-10) | 2 (40-60) | 1 (10-40) | 0 (0-10) | 0 (0-10)
2 | Cc1cc(Oc2nsnc(Cl)c2=O)ccc1Cl [Compound 54, 3-chloro-5-(4-chloro-3-methylphenoxy)-4H--1,2,6-thiadiazin-4-one] | 4 (80-100) | 4 (80-100) | 4 (80-100) | 4 (80-100) | 0 (0-10) | 0 (0-10) | 0 (0-10) | 0 (0-10) | 2 (40-60) | 0 (0-10) | 0 (0-10) | 0 (0-10)
3 | Cc1cc(Cl)ccc1Oc1nsnc(Cl)c1=O [Compound 55, 3-chloro-5-(4-chloro-2-methylphenoxy)-4H--1,2,6-thiadiazin-4-one] | 4 (80-100) | 2 (40-60) | 1 (10-40) | 0 (0-10) | 0 (0-10) | 0 (0-10) | 0 (0-10) | 0 (0-10) | 1 (10-40) | 0 (0-10) | 0 (0-10) | 1 (10-40)
4 | Cc1ccc(Cl)c(Oc2nsnc(Cl)c2=O)c1 [Compound 56, 3-chloro-5-[(2-chloro-5-methyl)phenoxy]-4H--1,2,6-thiadiazin-4-one] | 4 (80-100) | 3 (60-80) | 0 (0-10) | 0 (0-10) | 1 (10-40) | 0 (0-10) | 0 (0-10) | 0 (0-10) | 4 (80-100) | 2 (40-60) | 0 (0-10) | 0 (0-10)
5 | Cc1ccc(Oc2nsnc(Cl)c2=O)c(Br)c1 [Compound 57, 3-[(2-bromo-4-methyl)-phenoxy]-5-chloro-4H--1,2,6-thiadiazin-4-one] | 4 (80-100) | 2 (40-60) | 0 (0-10) | 0 (0-10) | 0 (0-10) | 0 (0-10) | 0 (0-10) | 0 (0-10) | 4 (80-100) | 0 (0-10) | 0 (0-10) | 0 (0-10)
6 | Cc1cc(Cl)c(Oc2nsnc(Cl)c2=O)cc1C [Compound 58, 3-chloro-5-[(2-chloro-4,5-dimethyl)phenoxy]-4H--1,2,6-thiadiazin-4-one] | 4 (80-100) | 3 (60-80) | 0 (0-10) | 0 (0-10) | 2 (40-60) | 0 (0-10) | 0 (0-10) | 0 (0-10) | 4 (80-100) | 0 (0-10) | 0 (0-10) | 0 (0-10)
7 | Cc1cc(Oc2nsnc(Cl)c2=O)cc(C)c1Cl [Compound 59, 3-chloro-5-[(4-chloro-3,5-dimethyl)phenoxy]-4H--1,2,6-thiadiazin-4-one] | 4 (80-100) | 4 (80-100) | 4 (80-100) | 4 (80-100) | 2 (40-60) | 2 (40-60) | 0 (0-10) | 0 (0-10) | 2 (40-60) | 1 (10-40) | 1 (10-40) | 1 (10-40)
8 | Cc1cc(Oc2nsnc(Cl)c2=O)cc(C)c1Br [Compound 60, 3-[(4-bromo-3,5-dimethyl)-phenoxy]-5-chloro-4H--1,2,6-thiadiazin-4-one] | 4 (80-100) | 4 (80-100) | 4 (80-100) | 3 (60-80) | 0 (0-10) | 0 (0-10) | 0 (0-10) | 0 (0-10) | 2 (40-60) | 1 (10-40) | 1 (10-40) | 0 (0-10)

— patent US4450269A, “Mono-5-substituted-3-chloro-4H-1,2,6-thiadiazin-4-one antifungal agents” (FMC Corporation, priority 1980, dated 1984)
